Data set [1] deals with TSLP mRNA. Description: Initial screening: TSLP mRNA knock-down by RT-PCR (Taqman) after RNAiMax transfection of NHLF cells. The conditions noted are these: 10 nM siNA, human NHLF cells. It is filed as cell-based. A general note: Real-time PCR tracks product formation cycle by cycle.
A further data set deals with TSLP protein. Briefly: TSLP ELISA in IL-1β/TNFα-stimulated NHLF cells. The conditions noted are these: relative to UC3 siRNA at matched concentration, siNA range 10 nM-0.00015 nM, concentration of the value not stated, mean ± s.d. The format is cell-based, human. As for the experimental part:
In a 96-well plate, 57,500 NHLFcells/well were seeded in 100 uL of complete growth media and incubated overnight at 37° C. with 5% CO2. The cells were transfected with siNAs using RNAiMax (Invitrogen, Cat#13778-150); final concentration of siNAs is 10 nM-0.00015 nM. The amount of RNAiMax in each well is 0.3 uL. The siNAs were incubated for 6 hours. The medium was replaced with 95 uL of fresh complete growth medium and 5 uL/well of IL-1β/TNFα at 10 ng/ml final concentration was added. The cells were incubated for 24 hours. 95 uL of the medium from each well was collected into a separate 96-well plate. The samples were frozen immediately at −80° C. until ready the assay was ready to be performed.
ELISA was performed using DuoSet ELISA Development System (R&D systems, Cat # DY1398) according to the manufacturer's instructions. A seven point standard curve using 2-fold serial dilution in reagent diluent buffer and a high standard of 1000 pg/ml was used. The samples were not diluted. Absorbance was obtained at […] (LM1) and […] (LM2) and the difference (LM1-LM2) was recorded on a SpectraMax plate reader (Molecular Devices) within 30 minutes of stopping the reaction.
Various siNAs were also evaluated for their potential to knock-down TSLP protein using an ELISA assay. Six siNAs were tested in an TSLP ELISA assay across a range of concentrations of siNAs and the level of reduction of protein was determined relative to treatment of the cells with identical concentrations of the negative universal control siNA (UC3) (see Table 6).

Data set [2] relates to TSLP mRNA. Briefly: Dose response curves of TSLP mRNA knock-down in NHLF cells. The format is cell-based. To be noted: human NHLF cells, mean ± s.d. As for the experimental part: NHLF (human; Lonza cat# CC-2512): Cells were cultured at 37° C. in the presence of 5% CO2 and grown Fibroblast Basal Medium (Lonza cat# CC-3β2) supplemented growth factors (provided with the kit) and 100 μg/mL of streptomycin and 100 U/mL penicillin.
Dose response curves were carried out in a similar fashion in 96-well plates, while maintaining a constant amount of RNAiMax in each transfection.
RNA was extracted from a 96-well plate using the TaqMan® Gene Expression Cells-to-CT™ Kit (Cat# 4399002) with a modified protocol. Briefly, a 60 uL (1 plate) or 110 uL (2 plates) of the Lysis Solution with DNase I was dispensed into each well of the Lysis Buffer Plate (twin.tec full skirt plate). The lysis buffer and stop plates were stored at 4° C. until the cells were washed.
Each well of the reverse transcription plate required 10 uL of 2× reverse transcriptase Buffer, luL of 20× reverse transcription enzyme and 2 uL of nuclease-free water. The reverse transcription master mix was prepared by mixing 2× reverse transcription buffer, 20× reverse transcription enzyme mix, and nuclease-free water. 13 uL of the reverse transcription master mix was dispensed into each well of the reverse transcription plate (semi-skirted). A separate reverse transcription plate was prepared for each cell plate. The plate was loaded onto a Biomek NX or Biomek FX Dual-96 and the Biomek method was run. The program is programmed to automatically added 7 uL of lysate from the cell lysis procedure described above into each well of the reverse transcription plate. The plate is sealed and spun on a centrifuge (1000 rpm for 30 seconds) to settle the contents to the bottom of the reverse transcription plate. The plate is placed in a thermocycler at 37° C. for 60 min, 95° C. for 5 min, and 4° C. until the plate is removed from the thermocycler. Upon removal, if not used immediately, the plate was frozen at −20° C.
A series of probes and primers were used to detect the various mRNA transcripts of the genes of TSLP, IL-8 and GAPDH in human cell lines. All the Taqman probes and primers for the experiments here-in described were supplied as pre-validated sets by Applied Biosystems, Inc. (see Table 2). The assays were performed on an ABI 7900 instrument, according to the manufacturer's instructions.
A TaqMan Gene Expression Master Mix (provided in the Cells-to-CT™, Applied Biosystems, Cat #4399002) was used. The PCR reactions were carried out at 50° C. for 2 min, 95° C. for 20 min followed by 40 cycles at 95° C. for 15 secs and 60° C. for 1 min.
The expression level of the gene of interest and % knock-down was calculated using Comparative Ct method: […]
All calculations of IC50s were performed using SigmaPlot 10.0 software. The data were analyzed using the sigmoidal dose-response (variable slope) equation for simple ligand binding. In all of the calculations of the % knock-down, the calculation was made relative to the normalized level of expression of the gene of interest in the samples treated with the non-targeting control (Ctrl siNA) unless otherwise indicated.
Summary data, as to potency and efficacy for TSLP mRNA knock-down in human cells for certain siNA molecules, is presented in Table 5. Cells for the experiments were treated with 12 concentrations of siNA ranging from 0.083 fM to 30 nM. All of the data is presented as % knockdown of TSLP normalized against the expression of GAPDH mRNA expression level. Then the data was determined as a % knockdown relative to the non-targeting control siNA.

The next data set relates to mTSLP mRNA. Briefly: Initial screening: mouse TSLP mRNA knock-down by RT-PCR (Taqman) after RNAiMax transfection of NIH 3T3 cells. It is filed as cell-based. To be noted: 10 nM siNA, 24 hrs post-transfection, mean ± s.d., summary from 2 screens.

[invAb] = inverted abasic unit; m = 2'-O-methyl; r = 2'-OH (RNA); f = 2'-fluoro

These results are taken from patent US20120022143A1, “RNA Interference Mediated Inhibition of the Thymic Stromal Lymphopoietin (TSLP) Gene Expression Using Short Interfering Nucliec Acid (siNA)” (Merck Sharp & Dohme Corp, priority 2009, published 2012).

“25450-DC: siNA duplex: sense B AuuuuGuGAAcAcuuuuGA TTB (SEQ ID NO: 83), antisense UCAAAAGuGuucAcAAAAuUU (SEQ ID NO: 84) (sense AUUUUGUGAACACUUUUGATT; antisense UCAAAAGUGUUCACAAAAUUU; sense: DNA at AGT, 2'-fluoro at CU, [invAb] at 5' end, 3' end, backbone not given here; antisense: sugars from the 5' end rrrmmmmfmfffmfmmmmfmm, backbone not given here)”: the “% KD TSLP” value in the data set on TSLP mRNA [1] (24 hrs post-transfection, relative to non-targeting control, normalized to GAPDH, mean ± s.d. from 2 experiments) was 82 ± 9.8%. Besides, in the data set with TSLP mRNA [1] (mean ± s.d. (Table 5)), the “% KD TSLP (10 nM)” value is on record as 82 ± 9.8%. In the data set with TSLP protein, the “% Reduction TSLP Protein” value came out at 44 ± 27.9%. For the same substance, the IC50 (usually the concentration needed to halve the response being measured) in the data set on TSLP mRNA [2] (TSLP mRNA knock-down, 12 concentrations from 0.083 fM to 30 nM) was 1.5 ± 0.3 pM. In addition, the “Maximum % KD in DRC” value in the data set on TSLP mRNA [2] (12 concentrations of siNA from 0.083 fM to 30 nM) was found to be 75 ± 2%. The “% KD mTSLP NIH3T3” value with mTSLP mRNA was found to be 8.8 ± 11%.
